Data reported in patent US20200069644A1, “NOVEL USE OF A FORMYL PEPTIDE RECEPTOR 2/ LIPOXIN A4 RECEPTOR (FPR2/ALX) AGONIST FOR TREATMENT OF HEART FAILURE” (BRISTOL- MYERS SQUIBB COMPANY, priority 2017, published 2020).

What was measured:
[1] = target: T1, Mouse FPR2 (Mus musculus, UniProt O88536); assay: cAMP inhibition, mouse FPR2/CHO-A12; assay type: cell-based
T1 construct: expressed in transfected cells; host or cells: CHO-A12
T1 sequence (O88536 1-351): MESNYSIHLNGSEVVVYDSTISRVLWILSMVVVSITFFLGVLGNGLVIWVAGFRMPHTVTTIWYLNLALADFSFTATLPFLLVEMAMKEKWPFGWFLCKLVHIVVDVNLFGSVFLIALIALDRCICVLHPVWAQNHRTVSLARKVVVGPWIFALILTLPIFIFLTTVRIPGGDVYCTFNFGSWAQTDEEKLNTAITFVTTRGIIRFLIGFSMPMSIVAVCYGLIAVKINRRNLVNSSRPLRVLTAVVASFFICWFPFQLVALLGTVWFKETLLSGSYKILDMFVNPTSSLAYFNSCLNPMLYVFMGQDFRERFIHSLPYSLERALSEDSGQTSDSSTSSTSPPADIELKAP
Protocol: [Worded in the source for another species; this species is reported under the same test.] (§1) A mixture of forskolin (5 μM final for FPR2 or 10 μM final for FPR1) and IBMX (200 μM final) were added to 384-well Proxiplates (Perkin-Elmer) pre-dotted with test compounds in DMSO (1% final) at final concentrations in the range of 0.1 nM to 10 μM. CHO overexpressing human FPR1 or human FPR2 receptors were cultured in F-12 (Ham's) medium supplemented with 10% qualified FBS, 250 μg/ml zeocin and 300 μg/ml hygromycin (Life Technologies). Reactions were initiated by adding 2,000 human FPR2 cells per well or 4,000 human FPR1 cells per well in Dulbecco's PBS (with calcium and magnesium) (Life Technologies) supplemented with 0.1% BSA (Perkin-Elmer). The reaction mixtures were incubated for 30 min at room temperature. The level of intracellular cAMP was determined using the HTRF HiRange cAMP assay reagent kit (Cisbio) according to manufacturer's instruction. Solutions of cryptate conjugated anti-cAMP and d2 flurorophore-labelled cAMP were made in a supplied lysis buffer separately. […] After a 1 h room temperature incubation, time-resolved fluorescence intensity was measured using the Envision (Perkin-Elmer) at 400 nm excitation and dual emission at 590 nm and 665 nm. […] The potency and activity of Compound 1 to inhibit cAMP production was then determined by fitting to a 4-parametric logistic equation from a plot of cAMP level versus compound concentrations. […]

[2] = system: ischemia-reperfusion myocardial infarction in rats; assay: Rat model of ischemia-reperfusion myocardial infarction, 6 weeks; assay type: in vivo
Protocol: In a third model of myocardial infarction, transient coronary artery occlusion followed by reperfusion was carried out in rats to induce myocardial infarction and to assess salvage of myocardium within the area at risk of myocardial infarction. Treatment with orally-administered Compound 1 (0.01, 0.1, 1, and 10 mg/kg, QD) or dosing solution without compound (QD, referred to as vehicle) was initiated 48 hours following myocardial infarction. Rats subjected to thoracotomy but not infarcted were included as surgical “sham” controls. Rats were evaluated 6 weeks following myocardial infarction to assess structure/function relationships. Hearts were removed from rats for histological processing to the extent of myocardial salvage with Compound 1 treatment. The pressure-volume conductance catheter technique was used to evaluate cardiac function.
The effects of Compound 1 on left ventricle and infarct scar remodeling were evaluated in a rat model of ischemia-reperfusion myocardial infarction. Treatments were initiated 48 hr after MI and were continued for 6 weeks. MI was created by transient ligation the left anterior descending artery with a surgical suture for 1 hour followed by reperfusion. Treatments consisted of a suspension vehicle, Compound 1 at 0.01, 0.1, 1 and 10 mg/kg. At the end of 6 weeks of treatment, hearts were removed for histological evaluation of left ventricle structure and scar structure. This is a model of ischemic heart disease.
In addition, the effect of Compound 1 on cardiac function was measured by the pressure-volume conductance catheter technique to assess structure/function relationships. The structure of the infarct wall was measured histologically to determine the extent of myocardial infarction and myocardial tissue salvage. In this model, blood reperfusion to the site of ischemia is designed to salvage myocardium within the area at risk of myocardial infarction. However, in this model, there is potential for additional insult to tissue caused by reperfusion that can stimulate added myocardial necrosis. Therefore, measurement of myocardial salvage within the myocardial infarct zone is an important endpoint in this model. […] Preservation of viable myocardium was obtained at the 0.1, 1 and 10 mg/kg doses (31-41% preservation relative to vehicle, *P<0.05, **P<0.01, ***P<0.001).
A pressure-volume conductance catheter was used to measure left ventricular ejection fraction at the end of the treatment phase. The fraction of blood pumped out of the left ventricle was measured per contraction cycle (i.e., ejection fraction) and was used to assess overall cardiac function following 6 weeks of treatment. […]

[3] = target: T2, Human FPR1 (Homo sapiens, UniProt P21462); assay: FPR1 cAMP assay (cAMP inhibition); assay type: cell-based; settings: Human FPR1/CHO-A12
T2 construct: expressed in transfected cells; host or cells: CHO-A12
T2 sequence (P21462 1-350): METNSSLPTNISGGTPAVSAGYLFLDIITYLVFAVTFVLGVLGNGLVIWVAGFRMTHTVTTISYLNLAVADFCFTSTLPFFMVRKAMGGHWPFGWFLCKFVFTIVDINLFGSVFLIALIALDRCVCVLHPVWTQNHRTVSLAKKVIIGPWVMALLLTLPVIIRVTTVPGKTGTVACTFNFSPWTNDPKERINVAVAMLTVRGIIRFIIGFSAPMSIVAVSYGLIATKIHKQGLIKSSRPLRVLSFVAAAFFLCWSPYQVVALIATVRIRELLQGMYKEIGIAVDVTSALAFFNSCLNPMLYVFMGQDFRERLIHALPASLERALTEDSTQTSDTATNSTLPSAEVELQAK
Protocol: as §1

[4] = system: Rat FPR2; assay: cAMP inhibition, rat FPR2 CHO cells; assay type: cell-based; settings: CHO cell lines, cAMP
[5] = target: Rat FPR2 (Rattus norvegicus, UniProt A0A8I6AM80); assay: cAMP inhibition, rat FPR2 CHO cells; assay type: cell-based; settings: Rat FPR2
Chain of Rat FPR2 (Rattus norvegicus, UniProt A0A8I6AM80) (A0A8I6AM80 1-351): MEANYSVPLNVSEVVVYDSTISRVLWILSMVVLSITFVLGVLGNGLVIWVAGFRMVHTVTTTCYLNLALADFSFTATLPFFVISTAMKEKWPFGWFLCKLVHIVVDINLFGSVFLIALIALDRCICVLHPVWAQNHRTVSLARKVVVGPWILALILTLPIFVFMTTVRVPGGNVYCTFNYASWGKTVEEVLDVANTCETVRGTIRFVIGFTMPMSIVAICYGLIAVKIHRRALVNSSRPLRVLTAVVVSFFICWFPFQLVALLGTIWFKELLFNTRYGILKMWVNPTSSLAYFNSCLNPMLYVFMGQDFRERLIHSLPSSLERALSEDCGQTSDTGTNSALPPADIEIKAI

SMILES: COc1cc(F)c([C@@H]2CNC(=O)[C@H]2NC(=O)Nc2ccccc2)c(F)c1 [Compound 1, 1-((3S,4R)-4-(2,6-difluoro-4-methoxyphenyl)-2-oxopyrrolidin-3-yl)-3-phenylurea]
- selectivity for mouse FPR2 vs. FPR1 ([1]; CHO cell lines, cAMP): 640 fold
- EC50 ([1]; Mouse FPR2/CHO-A12): 0.6 nM
- improvement in left ventricular ejection fraction vs. vehicle (pressure-volume conductance catheter) ([2]; 0.01 mg/kg PO QD, P<0.05): 37%
- improvement in left ventricular ejection fraction vs. vehicle (pressure-volume conductance catheter) ([2]; 1 mg/kg PO QD, P<0.01): 51%
- preservation of viable myocardium across infarct wall relative to vehicle ([2]; 0.1, 1 and 10 mg/kg PO QD): 31-41%
- left ventricular ejection fraction vs. vehicle (pressure-volume conductance catheter) ([2]; other doses (0.1 and 10 mg/kg)): trend towards improved ejection fraction
- EC50 [3]: 1250 nM
- selectivity for rat FPR2 vs. FPR1 [4]: 480 fold
- EC50 [5]: 1.5 nM
